In patent publication US9427604B2, “Use of benzyloxy-ethylamine derivatives as a preservative, preservation method, and compositions” (L'OREAL, priority 2009, dated 2016):

Columns and labels:
Assay type in all cases: cell-based
Settings in all cases: 7 days at 22° C.
[1] = tested on: Pseudomonas aeruginosa (Pa) ATCC 19429; assay: Challenge test (artificial contamination) in aqueous solution, P. aeruginosa
Method: (§1) The antimicrobial efficacy of compounds of formula (I) was evaluated via the challenge test or artificial contamination method after having introduced said compounds into water. The method of the challenge test consists of an artificial contamination of the sample with microbial strains from collection (bacteria, yeasts and moulds) and of an evaluation of the number of revivable microorganisms seven days after inoculation. […] 5 pure cultures of microorganisms are used. [table] The strains of gram−bacteria (Escherichia coli and Pseudomonas aeruginosa), gram+bacterium (Enterococcus faecalis), yeast (Candida albicans), and mould (Aspergillus niger) are inoculated into subculturing medium, respectively the day before inoculation for the bacteria and the yeast, and 5 days before inoculation for the mould. On the day of inoculation: • a suspension in tryptone salt diluent is prepared, respectively, for the bacteria and the yeast, so as to obtain by spectrophotometer a suspension with an optical density of between 35% and 45% of transmitted light at 544 nm; • for the mould, the spores are collected by washing the agar with 6 to 7 ml of harvesting solution and the suspension is recovered in a sterile tube or flask. After having homogenized the microbial suspension, 0.2 ml of inoculum (the suspensions are used pure: between 1×10^8 and 3×10^8 CFU per ml) are placed in each pill bottle and the microbial suspension is completely homogenized in the 20 g of product (=aqueous solution containing the compounds of formula (I) at the concentrations indicated) using a spatula. The content of microorganisms present in the product corresponds after homogenization to a concentration of 10^6 microorganisms per gram of product, i.e. inoculation to 1% of an inoculum containing 10^8 microorganisms per ml. After 7 days of contact time between the microorganisms and the product at 22° C.±2° C. and in the dark, ten-fold dilutions are carried out and the number of revivable microorganisms remaining in the product is counted.

[2] = tested on: Candida albicans (Ca) ATCC 10231; assay: Challenge test (artificial contamination) in aqueous solution, C. albicans
Method: as §1

[3] = tested on: Aspergillus niger (An) ATCC 6275; assay: Challenge test (artificial contamination) in aqueous solution, A. niger
Method: as §1

[4] = tested on: Escherichia coli (Ec) ATCC 8739; assay: Challenge test (artificial contamination) in aqueous solution, E. coli
Method: as §1

[5] = tested on: Enterococcus faecalis (Ef) ATCC 33186; assay: Challenge test (artificial contamination) in aqueous solution, E. faecalis
Method: as §1

[6] = content 1% in water, final pH 6.6, inoculation level 10^6 microorganisms/g
[7] = content 0.01% in water, final pH 7, inoculation level 10^6 microorganisms/g
[8] = content 0.05% in water, final pH 7, inoculation level 10^6 microorganisms/g
[9] = content 0.1% in water, final pH 7.2, inoculation level 10^6 microorganisms/g
[10] = content 0.25% in water, final pH 6.9, inoculation level 10^6 microorganisms/g
[11] = content 0.5% in water, final pH 7.4, inoculation level 10^6 microorganisms/g
[12] = content 0.75% in water, final pH 7.4, inoculation level 10^6 microorganisms/g
[13] = content 1% in water, final pH 7.5, inoculation level 10^6 microorganisms/g

Structure (SMILES): Cl.c1ccc(CNCCOCc2ccccc2)cc1 [Compound B]
- No. of CFU/gram of product at T7 days, P. aeruginosa [1, 6]: <200 CFU/gram of product
- No. of CFU/gram of product at T7 days, C. albicans [2, 6]: <200 CFU/gram of product
- No. of CFU/gram of product at T7 days, A. niger [3, 6]: <200 CFU/gram of product
- No. of CFU/gram of product at T7 days, E. coli [4, 6]: <200 CFU/gram of product
- No. of CFU/gram of product at T7 days, E. faecalis [5, 6]: <200 CFU/gram of product

Structure (SMILES): Cl.NCCOCc1ccccc1 [Compound A]
- No. of CFU/gram of product at T7 days, P. aeruginosa [1, 7]: 9.0 × 10^6 CFU/gram of product
- No. of CFU/gram of product at T7 days, P. aeruginosa [1, 8]: 1.9 × 10^6 CFU/gram of product
- No. of CFU/gram of product at T7 days, P. aeruginosa [1, 9]: 1.5 × 10^5 CFU/gram of product
- No. of CFU/gram of product at T7 days, P. aeruginosa [1, 10]: 3.0 × 10^3 CFU/gram of product
- No. of CFU/gram of product at T7 days, P. aeruginosa [1, 11]: <200 CFU/gram of product
- No. of CFU/gram of product at T7 days, P. aeruginosa [1, 12]: <200 CFU/gram of product
- No. of CFU/gram of product at T7 days, P. aeruginosa [1, 13]: <200 CFU/gram of product
- No. of CFU/gram of product at T7 days, C. albicans [2, 7]: 3.2 × 10^6 CFU/gram of product
- No. of CFU/gram of product at T7 days, C. albicans [2, 8]: 3.0 × 10^6 CFU/gram of product
- No. of CFU/gram of product at T7 days, C. albicans [2, 9]: 2.8 × 10^6 CFU/gram of product
- No. of CFU/gram of product at T7 days, C. albicans [2, 10]: 2.3 × 10^6 CFU/gram of product
- No. of CFU/gram of product at T7 days, C. albicans [2, 11]: 1.3 × 10^6 CFU/gram of product
- No. of CFU/gram of product at T7 days, C. albicans [2, 12]: 5.8 × 10^3 CFU/gram of product
- No. of CFU/gram of product at T7 days, C. albicans [2, 13]: <200 CFU/gram of product
- No. of CFU/gram of product at T7 days, A. niger [3, 7]: 1.4 × 10^6 CFU/gram of product
- No. of CFU/gram of product at T7 days, A. niger [3, 8]: 1.3 × 10^6 CFU/gram of product
- No. of CFU/gram of product at T7 days, A. niger [3, 9]: 1.0 × 10^6 CFU/gram of product
- No. of CFU/gram of product at T7 days, A. niger [3, 10]: 1.0 × 10^6 CFU/gram of product
- No. of CFU/gram of product at T7 days, A. niger [3, 11]: 6.2 × 10^5 CFU/gram of product
- No. of CFU/gram of product at T7 days, A. niger [3, 12]: 1.6 × 10^5 CFU/gram of product
- No. of CFU/gram of product at T7 days, A. niger [3, 13]: 3.6 × 10^4 CFU/gram of product
- No. of CFU/gram of product at T7 days, E. coli [4, 7]: 7.4 × 10^6 CFU/gram of product
- No. of CFU/gram of product at T7 days, E. coli [4, 8]: 6.2 × 10^6 CFU/gram of product
- No. of CFU/gram of product at T7 days, E. coli [4, 9]: 1.9 × 10^6 CFU/gram of product
- No. of CFU/gram of product at T7 days, E. coli [4, 10]: 2.8 × 10^3 CFU/gram of product
- No. of CFU/gram of product at T7 days, E. coli [4, 11]: <200 CFU/gram of product
- No. of CFU/gram of product at T7 days, E. coli [4, 12]: <200 CFU/gram of product
- No. of CFU/gram of product at T7 days, E. coli [4, 13]: <200 CFU/gram of product
- No. of CFU/gram of product at T7 days, E. faecalis [5, 7]: 4.1 × 10^5 CFU/gram of product
- No. of CFU/gram of product at T7 days, E. faecalis [5, 8]: 3.3 × 10^5 CFU/gram of product
- No. of CFU/gram of product at T7 days, E. faecalis [5, 9]: 6.9 × 10^4 CFU/gram of product
- No. of CFU/gram of product at T7 days, E. faecalis [5, 10]: 1.2 × 10^3 CFU/gram of product
- No. of CFU/gram of product at T7 days, E. faecalis [5, 11]: <200 CFU/gram of product
- No. of CFU/gram of product at T7 days, E. faecalis [5, 12]: <200 CFU/gram of product
- No. of CFU/gram of product at T7 days, E. faecalis [5, 13]: <200 CFU/gram of product
